According to ChEMBL document CHEMBL5550180, “Enhancing anti-cancer capacity: Novel class I/II HDAC inhibitors modulate EMT, cell cycle, and apoptosis pathways” (Bioorg Med Chem, 2024):
pIC50: −log10 of the molar value. Calls of active or inactive are those of the source. No cut-off for these calls is given here.

Key:
A549 [1] = experiment: cells; assay type: functional, cell-based; conditions: Homo sapiens, A549, 48 h
Description: Anticancer activity against human A549 cells assessed as inhibition of cell growth measured for 48 hrs by MTT assay

HT-29 [2] = experiment: cells; assay type: functional, cell-based; conditions: Homo sapiens, HT-29, 48 h
Description: Anticancer activity against human HT-29 cells assessed as inhibition of cell growth measured for 48 hrs by MTT assay

NCI-H1299 = experiment: Anticancer activity against human NCI-H1299 cells assessed as reduction in cell viability at 10 to 40 uM incubated for 48 hrs by MTT assay; assay type: functional, cell-based; conditions: dose 10-40 µM
A549 [3] = experiment: Anticancer activity against human A549 cells assessed as suppression of cell viability at 10 uM incubated for 48 hrs by MTT assay; assay type: functional, cell-based
HT-29 [4] = experiment: Anticancer activity against human HT-29 cells assessed as suppression of cell viability at 10 uM incubated for 48 hrs by MTT assay; assay type: functional, cell-based
A549 [5] = experiment: Anticancer activity against human A549 cells assessed as viable cells by measuring green fluorescence intensity measured for 48 hrs by Calcein AM staining based fluorescent microscopic analysis; assay type: functional, cell-based; conditions: dose 1-20 µM
HT-29 [6] = experiment: Anticancer activity against human HT-29 cells assessed as viable cells by measuring green fluorescence intensity measured for 48 hrs by Calcein AM staining based fluorescent microscopic analysis; assay type: functional, cell-based; conditions: dose 1-20 µM
A549 [7] = experiment: Inhibition of colony formation in human A549 cells at 250 to 500 nM measured for 10 days by crystal violet staining based analysis; assay type: functional, cell-based; conditions: dose 250-500 nM, time 10.0 day
HT-29 [8] = experiment: Inhibition of colony formation in human HT-29 cells at 125 to 250 nM measured for 10 days by crystal violet staining based analysis; assay type: functional, cell-based; conditions: dose 125-250 nM, time 10.0 day
[9] = biological target: T1, Histone deacetylase (Homo sapiens) (UniProt Q13547+O15379+Q9UBN7+Q92769+Q9UQL6+Q8WUI4+Q9BY41+Q96DB2+P56524+Q9UKV0+Q969S8); experiment: Inhibition of HDAC in human A549 cells incubated for 48 hrs by Western blot analysis; assay type: cell-based; conditions: dose 0.1-10 µM
[10] = biological target: T1, Histone deacetylase (Homo sapiens); experiment: Inhibition of HDAC in human HT-29 cells incubated for 48 hrs by Western blot analysis; assay type: cell-based; conditions: dose 0.1-10 µM
[11] = biological target: T1, Histone deacetylase (Homo sapiens); experiment: Inhibition of HDAC in human HT-29 cells assessed as increase in histone acetylation level at 2.5 to 5 uM incubated for 48 hrs by Western blot analysis; assay type: cell-based; conditions: dose 2.5-5 µM
[12] = biological target: T1, Histone deacetylase (Homo sapiens); experiment: Inhibition of HDAC in human HT-29 cells assessed as increase in acetyl alpha-tubulin level at 2.5 to 5 uM incubated for 48 hrs by Western blot analysis; assay type: cell-based; conditions: dose 2.5-5 µM
HT-29 [13] = experiment: Inhibition of cell migration in human HT-29 cells at 1.25 uM measured at 48 hrs by wound healing assay (reference value: 73.2%); assay type: functional
HT-29 [14] = experiment: Inhibition of cell migration in human HT-29 cells assessed as upregulation of E-cadherin level at 2.5 to 5 uM incubated for 48 hrs by Western blot analysis; assay type: functional, cell-based; conditions: dose 2.5-5 µM
HT-29 [15] = experiment: Inhibition of cell migration in human HT-29 cells assessed as downregulation of vimentin level at 2.5 to 5 uM incubated for 48 hrs by Western blot analysis; assay type: functional, cell-based; conditions: dose 2.5-5 µM
HT-29 [16] = experiment: Inhibition of cell migration in human HT-29 cells assessed as downregulation of slug level at 2.5 to 5 uM incubated for 48 hrs by Western blot analysis; assay type: functional, cell-based; conditions: dose 2.5-5 µM
A549 [17] = experiment: Induction of cell cycle arrest in human A549 cells assessed as accumulation at sub G1 at 5 to 10 uM incubated for 24 to 48 hrs by PI-staining based flow cytometric analysis; assay type: functional; conditions: dose 5-10 µM, time 24-48 hrs
A549 [18] = experiment: Induction of apoptosis in human A549 cells assessed as increase in PARP level at 5 to 10 uM incubated for 48 hrs by Western blot analysis; assay type: functional, cell-based; conditions: dose 5-10 µM
A549 [19] = experiment: Induction of apoptosis in human A549 cells assessed as increase in caspase 3 level at 5 to 10 uM incubated for 48 hrs by Western blot analysis; assay type: functional, cell-based; conditions: dose 5-10 µM
A549 [20] = experiment: Induction of apoptosis in human A549 cells assessed as upregulation of p53 expression at 5 to 10 uM incubated for 48 hrs by Western blot analysis; assay type: functional, cell-based; conditions: dose 5-10 µM
A549 [21] = experiment: Induction of cell cycle arrest in human A549 cells assessed as effect on p21 level at 5 to 10 uM incubated for 48 hrs by Western blot analysis; assay type: functional, cell-based; conditions: dose 5-10 µM
A549 [22] = experiment: Induction of cell cycle arrest in human A549 cells assessed as effect on cyclin B1 level at 5 to 10 uM incubated for 48 hrs by Western blot analysis; assay type: functional, cell-based; conditions: dose 5-10 µM
A549 [23] = experiment: Anticancer activity against human A549 cells cultured as 3D spheroids assessed as suppression of cell growth at 10 uM incubated for 48 hrs by celltiter-glo luminescent assay; assay type: functional, cell-based
HT-29 [24] = experiment: Anticancer activity against human HT-29 cells cultured as 3D spheroids assessed as suppression of cell growth at 10 uM incubated for 48 hrs by celltiter-glo luminescent assay; assay type: functional, cell-based
[25] = Toxicity in zebrafish embryo assessed as hatching rate at 1 to 5 uM measured after 72 hrs post fertilization by microscopic analysis; set-up: species or system Danio rerio; conditions: in vivo, dose 1-5 µM
[26] = Toxicity in zebrafish embryo assessed as survival rate at 1 to 5 uM measured after 72 hrs post fertilization; set-up: species or system Danio rerio; conditions: in vivo, dose 1-5 µM
[27] = Toxicity in zebrafish embryo assessed as effect on body length at 1 to 5 uM measured after 96 hrs post fertilization by microscopic analysis; set-up: species or system Danio rerio; conditions: in vivo, dose 1-5 µM
[28] = Toxicity in zebrafish embryo assessed as formation of scoliosis at 1 to 5 uM measured after 96 hrs post fertilization by microscopic analysis; set-up: species or system Danio rerio; conditions: in vivo, dose 1-5 µM
[29] = Toxicity in zebrafish embryo assessed as yolk sac edema at 1 to 5 uM measured after 96 hrs post fertilization by microscopic analysis; set-up: species or system Danio rerio; conditions: in vivo, dose 1-5 µM
A549 [30] = experiment: Inhibition of cell migration in human A549 cells at 2.5 uM measured at 24 hrs by wound healing assay (reference value: 68.4%); values are per cent of control; conditions: A549, 24 h
A549 [31] = experiment: Inhibition of cell migration in human A549 cells at 2.5 uM measured at 48 hrs by wound healing assay (reference value: 42.3%); values are per cent of control; conditions: A549, 48 h
A549 [32] = experiment: Inhibition of cell migration in human A549 cells at 2.5 uM measured immediately by wound healing assay (reference value: 100%); values are per cent of control
HT-29 [33] = experiment: Inhibition of cell migration in human HT-29 cells at 1.25 uM measured at 24 hrs by wound healing assay (reference value: 85.7%); values are per cent of control; conditions: HT-29, 24 h
HT-29 [34] = experiment: Inhibition of cell migration in human HT-29 cells at 1.25 uM measured immediately by wound healing assay (reference value: 100%); values are per cent of control

## Nc1ccccc1NC(=O)c1ccc(Cc2cn(S(=O)(=O)c3ccccc3)c3ccccc23)cc1
A549 [1]
  pIC50: 5.31
HT-29 [2]
  pIC50: 5.72
NCI-H1299
  Activity: Active
A549 [3]
  Activity: Active
HT-29 [4]
  Activity: Active
A549 [5]
  Activity: Dose-Dependent Effect
HT-29 [6]
  Activity: Dose-Dependent Effect
A549 [7]
  inhibition: Active
HT-29 [8]
  inhibition: Active
[9]
  inhibition: Active
[10]
  inhibition: Active
[11]
  inhibition: Active
[12]
  inhibition: Active
HT-29 [13]
  inhibition at 1.25 µM: 82.1%
HT-29 [14]
  inhibition: Active
HT-29 [15]
  inhibition: Active
HT-29 [16]
  inhibition: Active
A549 [17]
  Activity: Active
A549 [18]
  Activity: Active
A549 [19]
  Activity: Active
A549 [20]
  Activity: Active
A549 [21]
  Activity: Active
A549 [22]
  Activity: Active
A549 [23]
  Activity: Active
HT-29 [24]
  Activity: Active
[25]
  Activity: 100%
[26]
  survival at 72 h, up to 5 µM: ~100%
[27]
  Activity: Non-Toxic
[28]
  Activity: Non-Toxic
[29]
  Activity: Non-Toxic
A549 [30]
  wound area remaining at 2.5 µM: 75.8%
A549 [31]
  wound area remaining at 2.5 µM: 53.6%
A549 [32]
  wound area remaining at 2.5 µM: 100%
HT-29 [33]
  wound area remaining at 1.25 µM: 89.6%
HT-29 [34]
  wound area remaining at 1.25 µM: 100%
